Reference: patent US12310975B2, “Modulators of BCL6 proteolysis and associated methods of use” (Arvinas Operations, Inc., priority 2019, dated 2025)
Read-outs that look alike come from different tables or passages of the source.

Biological target: BCL6 (Homo sapiens (Human), UniProt P41182)
Test: Immunofluorescence high content imaging of BCL6 degradation in T47D cells
Type: cell-based
Details: for DC50: class symbols A-D, read-out: EC50 (nM)*
Procedure, shortened: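 Read-out is BCL6 immunofluorescence quantified by high-content imaging (10×, 4 fields per well) of T47D breast cancer cells. Cells were exposed for 3 days to degrader in an 11-point, 3-fold serial dilution reaching a final top concentration of 0.1 or 1 μM.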

SMILES | DC50 | Dmax (T47D) | also measured
CNC(=O)COc1cc2cc(Nc3nc(N4CCC(N(C)[C@H]5CC[C@@H](CN6CCN(c7ccc8c(c7)CN(C7CCC(=O)NC7=O)C8=O)CC6)CC5)CC4)ncc3Cl)ccc2n(C)c1=O (stereo partly drawn) [compound 102, 2-((6-((5-chloro-2-(4-(((1s,4s)-4-((4-(2-(2,6-dioxopiperidin-3-yl)-1-oxoisoindolin-5-yl)piperazin-1-yl)methyl)cyclohexyl) (methyl)amino)piperidin-1-yl)pyrimidin-4-yl)amino)-1-methyl-2-oxo-1,2-dihydroquinolin-3-yl)oxy)-N-methylacetamide] | < 10 nM |  | 
CNC(=O)COc1cc2cc(Nc3nc(N4CCN(CC5CCCN5c5ccc6c(c5)C(=O)N(C5CCC(=O)NC5=O)C6=O)CC4)ncc3Cl)ccc2n(C(C)C)c1=O (stereo not drawn) [compound 380, 2-{[6-({5-chloro-2-[4-({1-[2-(2,6-dioxopiperidin-3-yl)-1,3-dioxo-2,3-dihydro-1H-isoindol-5-yl]pyrrolidin-2-yl}methyl)piperazin-1-yl]pyrimidin-4-yl}amino)-2-oxo-1-(propan-2-yl)-1,2-dihydroquinolin-3-yl]oxy}-N-methylacetamide] |  |  | Dmax (T47D cells): < 50%; IC50 (T47D cells): 10 to 50 nM
CNC(=O)COc1cc2cc(Nc3nc(N4CCC(c5cn(CCOCCOCCOCCOCC(=O)N[C@H](C(=O)N6C[C@H](O)C[C@H]6C(=O)N[C@@H](C)c6ccc(-c7scnc7C)cc6)C(C)(C)C)nn5)CC4)ncc3Cl)ccc2n(C)c1=O [compound 108, (2S,4R)-1-((S)-2-(tert-butyl)-17-(4-(1-(5-chloro-4-((1-methyl-3-(2-(methylamino)-2-oxoethoxy)-2-oxo-1,2-dihydroquinolin-6-yl)amino)pyrimidin-2-yl)piperidin-4-yl)-1H-1,2,3-triazol-1-yl)-4-oxo-6,9,12,15-tetraoxa-3-azaheptadecanoyl)-4-hydroxy-N-((S)-1-(4-(4-methylthiazol-5-yl)phenyl)ethyl)pyrrolidine-2-carboxamide] | 50 to 100 nM |  | 
CNC(=O)COc1cc2cc(Nc3nc(N4CCN(CC5CCN(c6ccc7c(c6)CN(C6CCC(=O)NC6=O)C7=O)CC5)CC4)ncc3Cl)ccc2n(C(C)C)c1=O (stereo not drawn) [compound 388, 2-{[6-({5-chloro-2-[4-({1-[2-(2,6-dioxopiperidin-3-yl)-1-oxo-2,3-dihydro-1H-isoindol-5-yl]piperidin-4-yl}methyl)piperazin-1-yl]pyrimidin-4-yl}amino)-2-oxo-1-(propan-2-yl)-1,2-dihydroquinolin-3-yl]oxy}-N-methylacetamide] |  |  | Dmax (T47D cells): 50 to 70%; IC50 (T47D cells): < 10 nM
CN1C(=O)CCc2cc(Nc3cc(N4CCC(CN(C)[C@H]5C[C@H](Oc6ccc7c(c6)C(=O)N(C6CCC(=O)NC6=O)C7=O)C5)CC4)c([N+](=O)[O-])cc3Cl)ccc21 (stereo partly drawn) [compound 85, 5-((1r,3r)-3-(((1-(4-chloro-5-((1-methyl-2-oxo-1,2,3,4-tetrahydroquinolin-6-yl)amino)-2-nitrophenyl)piperidin-4-yl)methyl)(methyl)amino)cyclobutoxy)-2-(2,6-dioxopiperidin-3-yl)isoindoline-1,3-dione] | > 100 nM |  | 
CNC(=O)COc1cc2cc(Nc3nc(N4CCC(Cc5cn(CCOCCOCCOCCOCCOCC(=O)N[C@H](C(=O)N6C[C@H](O)C[C@H]6C(=O)N[C@@H](C)c6ccc(-c7scnc7C)cc6)C(C)(C)C)nn5)CC4)ncc3Cl)ccc2n(C)c1=O [compound 124, (2S,4R)-1-((S)-2-(tert-butyl)-20-(4-((1-(5-chloro-4-((1-methyl-3-(2-(methylamino)-2-oxoethoxy)-2-oxo-1,2-dihydroquinolin-6-yl)amino)pyrimidin-2-yl)piperidin-4-yl)methyl)-1H-1,2,3-triazol-1-yl)-4-oxo-6,9,12,15,18-pentaoxa-3-azaicosanoyl)-4-hydroxy-N-((S)-1-(4-(4-methylthiazol-5-yl)phenyl)ethyl)pyrrolidine-2-carboxamide] | 50 to 100 nM |  | 
CNC(=O)COc1cc2cc(Nc3nc(N4CCC(CN5CCC(c6ccc7c(c6)C(=O)N(C6CCC(=O)NC6=O)C7=O)CC5)CC4)ncc3Cl)ccc2n(C)c1=O (stereo not drawn) [compound 289, 2-{[6-({5-chloro-2-[4-({4-[2-(2,6-dioxopiperidin-3-yl)-1,3-dioxo-2,3-dihydro-1H-isoindol-5-yl]piperidin-1-yl}methyl)piperidin-1-yl]pyrimidin-4-yl}amino)-1-methyl-2-oxo-1,2-dihydroquinolin-3-yl]oxy}-N-methylacetamide] |  | ≥ 70% | IC50: 10 to 50 nM
CNC(=O)COc1cc2cc(Nc3cc(N4CCN(CC5CCN(c6ccc7c(c6)C(=O)N(C6CCC(=O)NC6=O)C7=O)CC5)CC4)ncc3Cl)ccc2n(C)c1=O (stereo not drawn) [compound 253, 2-((6-((5-chloro-2-(4-((1-(2-(2,6-dioxopiperidin-3-yl)-1,3-dioxoisoindolin-5-yl)piperidin-4-yl)methyl)piperazin-1-yl)pyridin-4-yl)amino)-1-methyl-2-oxo-1,2-dihydroquinolin-3-yl)oxy)-N-methylacetamide] |  | ≥ 70% | 
CNC(=O)COc1cc2cc(Nc3nc(N4CCC(CN5CCC6(CCN(c7ccc8c(c7)CN(C7CCC(=O)NC7=O)C8=O)C6)C5)CC4)ncc3Cl)ccc2n(C(C)C)c1=O (stereo not drawn) [compound 437, 2-{[6-({5-chloro-2-[4-({7-[2-(2,6-dioxopiperidin-3-yl)-1-oxo-2,3-dihydro-1H-isoindol-5-yl]-2,7-diazaspiro[4.4]nonan-2-yl}methyl)piperidin-1-yl]pyrimidin-4-yl}amino)-2-oxo-1-(propan-2-yl)-1,2-dihydroquinolin-3-yl]oxy}-N-methylacetamide] |  |  | Dmax (T47D cells): ≥ 70%; IC50 (T47D cells): < 10 nM
CCn1c(=O)c(OCC(=O)NC)cc2cc(Nc3nc(N4CCN(C(C)(C)C5CCN(c6ccc7c(c6)CN(C6CCC(=O)NC6=O)C7=O)CC5)CC4)ncc3Cl)ccc21 (stereo not drawn) [compound 313, 2-{[6-({5-chloro-2-[4-(2-{1-[2-(2,6-dioxopiperidin-3-yl)-1-oxo-2,3-dihydro-1H-isoindol-5-yl]piperidin-4-yl}propan-2-yl)piperazin-1-yl]pyrimidin-4-yl}amino)-1-ethyl-2-oxo-1,2-dihydroquinolin-3-yl]oxy}-N-methylacetamide] |  | 50 to 70% | IC50: < 10 nM
CNC(=O)COc1cc2cc(Nc3nc(N4CCC(OCCOc5ccc6c(c5)CN(C5CCC(=O)NC5=O)C6=O)CC4)ncc3Cl)ccc2n(C)c1=O (stereo not drawn) [compound 71, 2-((6-((5-chloro-2-(4-(2-((2-(2,6-dioxopiperidin-3-yl)-1-oxoisoindolin-5-yl)oxy)ethoxy)piperidin-1-yl)pyrimidin-4-yl)amino)-1-methyl-2-oxo-1,2-dihydroquinolin-3-yl)oxy)-N-methylacetamide] | 50 to 100 nM |  | 
CNC(=O)COc1cc2cc(Nc3nc(N4CCCC(OC5CCN(c6ccc7c(c6)C(=O)N(C6CCC(=O)NC6=O)C7=O)CC5)CC4)ncc3Cl)ccc2n(C)c1=O (stereo not drawn) [compound 241, 2-((6-((5-chloro-2-(4-((1-(2-(2,6-dioxopiperidin-3-yl)-1,3-dioxoisoindolin-5-yl)piperidin-4-yl)oxy)azepan-1-yl)pyrimidin-4-yl)amino)-1-methyl-2-oxo-1,2-dihydroquinolin-3-yl)oxy)-N-methylacetamide] |  | < 50% | IC50: 10 to 50 nM
